The values that follow come from patent US4640931A, “3-(indian-5-yloxy (or thio)) cyclopentanecarboxylic acid analogues” (Ono Pharmaceutical Co., Ltd., priority 1984, dated 1987).

A short description of one data set: acute toxicity test. The following applies: in vivo, iv; administered intravenously. From the text:
On the other hand, it was confirmed that the acute toxicity of the compounds of the present invention was very weak. […] Therefore, compounds of the present invention may be considered to be sufficiently safe and suitable for medical use.

Data set [1] has as its system organ slice of cat cerebral cortex (cerebral edema). Description: inhibition test on cerebral edema using organ slice of cat cerebral cortex (NaHCO3-stimulated swelling). Type of data set: cell-based. The following applies: for IC50: Felis catus, 50 min, cat cerebral cortex slices, NaHCO3 stimulated swelling, 50 minutes at 37° C., pH 7.4, read-out: Inhibitory activity cerebral edema (IC50); for Relative activity (Compound A = 1): relative to Compound A = 1. As for the experimental part:
The inhibition test on cerebral edema using organ slice of cat cerebral cortex The test was carried out by the method described in Journal of Medicinal Chemistry, vol. 25 (No. 5) 567 (1982).
That is, brain was isolated from a cat weighing 2-4 kg, slices of about 1 mm in thickness was prepared, the white matter substance was removed, and the gray matter substance (100-150 mg a test) was used for a sample. The sample was added to the following incubation medium and incuvated for 50 minutes at 37° C. After the incubation, the sample was immediately weighed again to determine the swelling weight of the sample. […]
incubation medium (osmotic pressure, 280-290 mOsm/1)
1. Hepes Buffer (pH 7.4) . . . 2.365 ml […]
adjusted to pH 7.4 by NaOH
2. test compounds [dissolved in the presence of tris(hydroxymethyl)aminomethane] or water . . . 0.01 ml 3. 0.2M NaHCO3 (dissolved by Hepes Buffer, giving the final concentration of 10 mM in medium) or Hepes Buffer . . . 0.125 ml The test was carried out by using NaHCO3 as a stimulating agent of swelling.
(A) A percentage of swelling when a slice sample was added to incubation medium comprising Hepes Buffer (1), water (2) and NaHCO3 (3) (defined as maximum of swelling).
(B) A percentage of swelling when a slice sample was added to incubation medium comprising Hepes Buffer ((1)+(3)) and water (2) (defined as maximum inhibition of swelling).
(C) A percentage of swelling when a slice sample was added to incubation medium comprising Hepes Buffer (1), the test compounds in various concentrations (2) and NaHCO3 (3).
Above-mentioned (A), (B) and (C) were determined. Inhibition percentage of the test compounds was caliculated by the following equation: [formula] IC50 value was determined by dose-response curve as a concentration in which inhibition percentage was 50.

Data set [2] shares this test system. As to conditions: in words, known DCPIB; cited from earlier work.

As usually defined, the LD50 is the dose at which mortality reaches 50%. The low end stands for greater toxicity, the high end for lower toxicity. Broadly, the IC50 is the concentration needed to halve the response being measured. For the compound `CC1(C2CCCC2)Cc2cc(O[C@H]3CC[C@H](C(=O)O)C3)c(Cl)c(Cl)c2C1=O` (mixture of isomers) [Ex. 2 (a), (1S, 3S)-3-[((2RS)-2-cyclopentyl-2-methyl-6,7-dichloro-1-oxoindan-5-yl)oxy]cyclopentanecarboxylic acid], the LD50 in “acute toxicity test” was in the range of 200 to 400 mg/kg. Also, in data set [1], the IC50 was determined as 1.5 nM and the “Relative activity (Compound A = 1)” value came out at 21.3.
As to `CC1(C2CCCC2)Cc2cc(S[C@H]3CC[C@H](C(=O)O)C3)c(Cl)c(Cl)c2C1=O` (mixture of isomers) [Ex. 2 (b), (1S, 3S)-3-[((2RS)-2-cyclopentyl-2-methyl-6,7-dichloro-1-oxoindan-5-yl)thio]cyclopentanecarboxylic acid], in data set [1], the IC50 amounted to 5.9 nM and the “Relative activity (Compound A = 1)” value is 5.42.
For `CC1(C2CCCC2)Cc2cc(O[C@H]3CC[C@H](C(=O)O)C3)c(Cl)c(Cl)c2C1=O` (relative stereo) [Ex. 2, 1,3-trans-3-[((2RS)-2-cyclopentyl-2-methyl-6,7-dichloro-1-oxoindan-5-yl)oxy]cyclopentanecarboxylic acid], in that order: 2.5 nM and 12.8.
As for `C[C@]1(C2CCCC2)Cc2cc(OCCCC(=O)O)c(Cl)c(Cl)c2C1=O` [Compound A, (+)-4-[((2R)-2-cyclopentyl-2-methyl-6,7-dichloro-1-oxoindan-5-yl)oxy]butyric acid, reference compound], the concentration for half-maximal inhibition (IC50) in data set [1] is 32 nM. Besides, in data set [2], the “inhibitory effect on cerebral edema” value is reported as “strong, but the effect is not enough to use in practice”.
For `C[C@@]1(C2CCCC2)Cc2cc(O[C@H]3CC[C@H](C(=O)O)C3)c(Cl)c(Cl)c2C1=O` [Ex. 2 (c), (1S, 3S)-3-[((2S)-2-cyclopentyl-2-methyl-6,7-dichloro-1-oxoindan-5-yl)oxy]cyclopentanecarboxylic acid], in data set [1], the IC50 was 1.6 nM and the “Relative activity (Compound A = 1)” value came to 20.0.
